# Laboratory results as given in patent US11186592B2, “Thiazolopyridine derivatives as adenosine receptor antagonists” (MERCK PATENT GMBH, priority 2017, dated 2021).
# Experiments:
# Assay type in all cases: cell-based
# human A1 receptor = molecular target: T1, human A1 receptor (Homo sapiens, UniProt P30542); assay: cAMP (HTRF) functional assay, recombinant CHO cells expressing human A1 receptor, forskolin + agonist CPA
# T1 construct: expressed in transfected cells; host or cells: CHO
# T1 sequence (P30542 1-326): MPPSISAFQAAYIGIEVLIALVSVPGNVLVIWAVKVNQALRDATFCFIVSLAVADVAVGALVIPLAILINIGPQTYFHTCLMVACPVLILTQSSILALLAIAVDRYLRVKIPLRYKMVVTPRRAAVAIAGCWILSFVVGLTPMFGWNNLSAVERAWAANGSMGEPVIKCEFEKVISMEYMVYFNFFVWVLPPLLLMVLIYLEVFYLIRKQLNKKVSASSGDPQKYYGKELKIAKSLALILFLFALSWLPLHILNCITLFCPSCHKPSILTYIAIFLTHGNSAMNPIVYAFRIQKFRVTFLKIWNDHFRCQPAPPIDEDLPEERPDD
# Method: (§1) The functional activities of human A2A, A2B, A1 and A3 receptors were determined by quantification of cAMP, being the second messenger for adenosine receptors.
# (§2) For human A1 and A3 receptors, recombinant CHO cells, expressing either A1 or A3-receptor, were used. As both receptors couple to Gi proteins, the assay protocol was adapted:
# (§3) Cells were seeded into 384-well plates, forskolin, test compounds and agonists (CPA for A1- and IB-MECA for A3-receptor) were added. After 30 min incubation, HTRF reagents (cAMP dynamic 2, Cis Bio) were added and the cellular cAMP levels were determined using the ENVISION (Perkin Elmer) plate reader. Obtained raw data were normalized against the inhibitor control and the neural control (DMSO) and the normalized data were fitted using GeneData software.
# human A2B receptor = molecular target: T2, human A2B receptor (Homo sapiens, UniProt P29275); assay: cAMP (HTRF) functional assay, recombinant HEK293 cells expressing human A2B receptor, agonist NECA
# T2 construct: expressed in transfected cells; host or cells: HEK293
# T2 sequence (P29275 1-332): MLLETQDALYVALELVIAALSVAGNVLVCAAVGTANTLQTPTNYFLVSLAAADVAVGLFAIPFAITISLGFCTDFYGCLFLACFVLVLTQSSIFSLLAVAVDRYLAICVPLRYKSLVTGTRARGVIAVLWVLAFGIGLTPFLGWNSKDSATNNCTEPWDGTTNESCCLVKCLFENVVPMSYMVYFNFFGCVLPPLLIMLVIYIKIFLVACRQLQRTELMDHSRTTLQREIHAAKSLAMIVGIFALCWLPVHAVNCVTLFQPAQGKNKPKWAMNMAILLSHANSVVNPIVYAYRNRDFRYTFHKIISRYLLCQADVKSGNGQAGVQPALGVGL
# Method: as §1, §3
# human A3 receptor = molecular target: T3, human A3 receptor (Homo sapiens, UniProt P0DMS8); assay: cAMP (HTRF) functional assay, recombinant CHO cells expressing human A3 receptor, forskolin + agonist IB-MECA
# T3 construct: expressed in transfected cells; host or cells: CHO
# T3 sequence (P0DMS8 1-318): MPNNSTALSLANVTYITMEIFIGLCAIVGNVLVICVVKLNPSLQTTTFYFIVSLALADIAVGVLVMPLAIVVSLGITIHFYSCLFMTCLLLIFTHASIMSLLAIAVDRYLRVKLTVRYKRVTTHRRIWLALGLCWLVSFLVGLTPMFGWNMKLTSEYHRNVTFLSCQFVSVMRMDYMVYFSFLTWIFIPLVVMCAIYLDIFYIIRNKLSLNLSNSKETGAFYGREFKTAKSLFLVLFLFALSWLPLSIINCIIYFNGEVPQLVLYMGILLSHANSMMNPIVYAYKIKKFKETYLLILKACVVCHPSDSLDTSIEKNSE
# Method: as §1, §2, §3
# human A2A receptor = molecular target: T4, human A2A receptor (Homo sapiens, UniProt P29274); assay: cAMP (HTRF) functional assay, recombinant HEK293 cells expressing human A2A receptor, agonist NECA
# T4 construct: expressed in transfected cells; host or cells: HEK293
# T4 sequence (P29274 whole entry): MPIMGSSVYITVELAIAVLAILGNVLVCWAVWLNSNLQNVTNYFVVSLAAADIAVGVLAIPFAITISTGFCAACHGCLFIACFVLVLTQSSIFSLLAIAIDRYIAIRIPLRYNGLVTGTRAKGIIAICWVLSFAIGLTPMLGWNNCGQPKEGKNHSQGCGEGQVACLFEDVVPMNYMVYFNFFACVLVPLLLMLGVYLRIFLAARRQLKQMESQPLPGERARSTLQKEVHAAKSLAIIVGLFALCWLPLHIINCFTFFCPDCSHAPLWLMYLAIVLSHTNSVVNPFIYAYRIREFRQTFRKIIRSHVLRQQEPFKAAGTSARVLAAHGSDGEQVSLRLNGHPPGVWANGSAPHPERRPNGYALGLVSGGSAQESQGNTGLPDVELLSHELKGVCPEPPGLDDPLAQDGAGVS
# Method: as §1, §3
SMILES,IC50 (human A1 receptor),IC50 (human A2B receptor),IC50 (human A3 receptor),IC50 (human A2A receptor)
"COc1ncc(-c2ccccc2)c2sc(NC(=O)N3CCC4(CCOCC4)C3)nc12 [compound 53, 8-Oxa-2-aza-spiro[4.5]decane-2-carboxylic acid (4-methoxy-7-phenyl-thiazolo[4,5-c]pyridin-2-yl)-amide]",> 1000 nM,< 100 nM,> 1000 nM,< 10 nM
"COc1ncc(-c2cnn(C)c2)c2sc(NC(=O)N3CCC4(CCOC4)C3)nc12 (stereo not shown) [compound 82, 2-Oxa-7-aza-spiro[4.4]nonane-7-carboxylic acid [4-methoxy-7-(1-methyl-1H-pyrazol-4-yl)-thiazolo[4,5-c]pyridin-2-yl]-amide]",> 1000 nM,< 100 nM,> 1000 nM,< 10 nM
"COc1ncc(C2CCOCC2)c2sc(NC(=O)c3ccc(C(=O)N(C)C)cc3)nc12 [compound 113, N-[4-Methoxy-7-(tetrahydro-pyran-4-yl)-thiazolo[4,5-c]pyridin-2-yl]-N′,N′-dimethyl-terephthalamide]",> 1000 nM,< 100 nM,> 1000 nM,< 10 nM
"COc1ncc(N2CC3(CCCO3)C2)c2sc(NC(=O)c3cnn(C)c3)nc12 [compound 156, 1-Methyl-1H-pyrazole-4-carboxylic acid [4-methoxy-7-(5-oxa-2-aza-spiro[3.4]oct-2-yl)-thiazolo[4,5-c]pyridin-2-yl]-amide]",> 1000 nM,< 100 nM,< 1000 nM,< 100 nM
"COc1ncc(N2CCOCC2)c2sc(NC(=O)C3CC3)nc12 [compound 167, Cyclopropanecarboxylic acid (4-methoxy-7-morpholin-4-yl-thiazolo[4,5-c]pyridin-2-yl)-amide]",> 1000 nM,< 100 nM,> 1000 nM,< 10 nM
"COc1ncc(-c2cnn(C)c2)c2sc(NC(=O)N3CC[C@]4(CCOC4)C3)nc12 [compound 173, (S)-2-Oxa-7-aza-spiro[4.4]nonane-7-carboxylic acid [4-methoxy-7-(1-methyl-1H-pyrazol-4-yl)-thiazolo[4,5-c]pyridin-2-yl]-amide]",> 1000 nM,< 100 nM,> 1000 nM,< 10 nM
"COc1ncc(-c2cnn(C)c2)c2sc(NC(=O)C3CC3)nc12 [compound 179, Cyclopropanecarboxylic acid [4-methoxy-7-(1-methyl-1H-pyrazol-4-yl)-thiazolo[4,5-c]pyridin-2-yl]-amide]",> 1000 nM,< 100 nM,< 1000 nM,< 10 nM
"COc1ncc(-c2cccc(F)c2)c2sc(NC(=O)N3CCC4(CCOCC4)C3)nc12 [compound 194, 8-Oxa-2-aza-spiro[4.5]decane-2-carboxylic acid [7-(3-fluoro-phenyl)-4-methoxy-thiazolo[4,5-c]pyridin-2-yl]-amide]",< 1000 nM,< 100 nM,> 1000 nM,< 10 nM
"COc1ncc(-c2ccccc2F)c2sc(NC(=O)N3CCC4(CCOCC4)C3)nc12 [compound 195, 8-Oxa-2-aza-spiro[4.5]decane-2-carboxylic acid [7-(2-fluoro-phenyl)-4-methoxy-thiazolo[4,5-c]pyridin-2-yl]-amide]",> 1000 nM,< 100 nM,> 1000 nM,< 10 nM
"COc1ncc(-c2ccccc2)c2sc(NC(=O)C3(N)CC3)nc12 [compound 203, 1-Amino-cyclopropanecarboxylic acid (4-methoxy-7-phenyl-thiazolo[4,5-c]pyridin-2-yl)-amide]",< 1000 nM,< 100 nM,< 1000 nM,< 10 nM
"COc1ncc(-c2ccccc2)c2sc(NC(=O)N3CC[C@@]4(CCCOC4)C3)nc12 [compound 204, (S)-7-Oxa-2-aza-spiro[4.5]decane-2-carboxylic acid (4-methoxy-7-phenyl-thiazolo[4,5-c]pyridin-2-yl)-amide]",< 1000 nM,< 100 nM,> 1000 nM,< 10 nM

# Continued, values first:
IC50 (human A1 receptor),IC50 (human A2B receptor),IC50 (human A3 receptor),IC50 (human A2A receptor),SMILES
< 1000 nM,< 100 nM,> 1000 nM,< 10 nM,"COCc1ccc(C(=O)Nc2nc3c(OC)ncc(C4CCOCC4)c3s2)cc1 [compound 23, 4-Methoxymethyl-N-[4-methoxy-7-(tetrahydro-pyran-4-yl)-thiazolo[4,5-c]pyridin-2-yl]-benzamide]"
< 1000 nM,< 100 nM,< 1000 nM,< 10 nM,"COCCn1cc(C(=O)Nc2nc3c(OC)ncc(C4CCOCC4)c3s2)cn1 [compound 29, 1-(2-Methoxy-ethyl)-1H-pyrazole-4-carboxylic acid [4-methoxy-7-(tetrahydro-pyran-4-yl)-thiazolo[4,5-c]pyridin-2-yl]-2-amide]"
< 1000 nM,< 100 nM,> 1000 nM,< 10 nM,"COc1ncc(C2CCOCC2)c2sc(NC(=O)N3CCC(C)(O)CC3)nc12 [compound 30, 4-Hydroxy-4-methyl-piperidine-1-carboxylic acid [4-methoxy-7-(tetrahydro-pyran-4-yl)-thiazolo[4,5-c]pyridin-2-yl]-amide]"
< 1000 nM,< 100 nM,> 1000 nM,< 10 nM,"COc1ncc(-c2ccccc2)c2sc(NC(=O)N3CCC4(CCCOC4)C3)nc12 (stereo not shown) [compound 52, 7-Oxa-2-aza-spiro[4.5]decane-2-carboxylic acid (4-methoxy-7-phenyl-thiazolo[4,5-c]pyridin-2-yl)-amide]"
< 1000 nM,< 100 nM,> 1000 nM,< 10 nM,"COc1ncc(-c2ccccc2)c2sc(NC(=O)N3CCC4(CCOC4)C3)nc12 (stereo not shown) [compound 54, 2-Oxa-7-aza-spiro[4.4]nonane-7-carboxylic acid (4-methoxy-7-phenyl-thiazolo[4,5-c]pyridin-2-yl)-amide]"
< 1000 nM,< 10 nM,> 1000 nM,< 10 nM,"COc1ncc(-c2ccccc2)c2sc(NC(=O)c3ccc(C(=O)N(C)C)cc3)nc12 [compound 58, N-(4-Methoxy-7-phenyl-thiazolo[4,5-c]pyridin-2-yl)-N′,N′-dimethyl-terephthalamide]"
< 1000 nM,< 100 nM,> 1000 nM,< 10 nM,"COc1ncc(-c2cnn(C)c2)c2sc(NC(=O)c3cnc(C)o3)nc12 [compound 130, 2-Methyl-oxazole-5-carboxylic acid [4-methoxy-7-(1-methyl-1H-pyrazol-4-yl)-thiazolo[4,5-c]pyridin-2-yl]-amide]"
< 1000 nM,< 100 nM,< 1000 nM,< 10 nM,"COc1ncc(N2CCOCC2)c2sc(NC(=O)c3cnn(C)c3)nc12 [compound 171, 1-Methyl-1H-pyrazole-4-carboxylic acid (4-methoxy-7-morpholin-4-yl-thiazolo[4,5-c]pyridin-2-yl)-amide]"
< 1000 nM,< 100 nM,< 1000 nM,< 10 nM,"COc1ncc(-c2ccccc2)c2sc(NC(=O)c3cnc(C)o3)nc12 [compound 186, 2-Methyl-oxazole-5-carboxylic acid (4-methoxy-7-phenyl-thiazolo[4,5-c]pyridin-2-yl)-amide]"
< 1000 nM,< 100 nM,< 1000 nM,< 10 nM,"COc1ncc(-c2ccccc2)c2sc(NC(=O)C3CC3)nc12 [compound 187, Cyclopropanecarboxylic acid (4-methoxy-7-phenyl-thiazolo[4,5-c]pyridin-2-yl)-amide]"
< 1000 nM,< 100 nM,< 1000 nM,< 10 nM,"COc1ncc(-c2ccccc2)c2sc(NC(=O)c3cnc(C)s3)nc12 [compound 190, 2-Methyl-thiazole-5-carboxylic acid (4-methoxy-7-phenyl-thiazolo[4,5-c]pyridin-2-yl)-amide]"
